Legend:
[1] = system: MFM-223; conditions: 72 h
Method in brief: (§1)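 Breast cancer cell lines in 20 µl suspension were added to 384-well plates already holding compound at 5 concentrations, spaced in 10-fold steps across a compound-specific 10,000-fold range, and incubated for 72 h. CellTox Green fluorescence (485/520 nm) was read first to measure cell death, followed by CellTiter-Glo luminescence for viability after 10 min at room temperature. Each plate was normalised to 0.1 % DMSO and a positive kill control. EC50 values came from dose-response curve fits and were censored at the top concentration.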

[2] = system: HCC1143; conditions: 72 h
Method in brief: as §1

[3] = system: MDA-MB-436; conditions: 72 h
Method in brief: as §1

[4] = system: HCC1599; conditions: 72 h
Method in brief: as §1

[5] = system: SK-BR-3; conditions: 72 h
Method in brief: as §1

[6] = system: CAL-51; conditions: 72 h
Method in brief: as §1

[7] = system: DU-4475; conditions: 72 h
Method in brief: as §1

[8] = system: MDA-MB-453; conditions: 72 h
Method in brief: as §1

[9] = system: MCF-10A; conditions: 72 h
Method in brief: as §1

[10] = system: MDA-MB-231; conditions: 72 h
Method in brief: as §1

[11] = system: HCC1937; conditions: 72 h
Method in brief: as §1

[12] = system: CAL-85-1; conditions: 72 h
Method in brief: as §1

[13] = system: Hs578T; conditions: 72 h
Method in brief: as §1

[14] = system: BT-549; conditions: 72 h
Method in brief: as §1

[15] = system: CAL-120; conditions: 72 h
Method in brief: as §1

[16] = system: MDA-MB-468; test: normalised viability (% of control), CellTiter-Blue; higher = more viable cells (about 100 = DMSO control); conditions: incubation time: 72 h
Method in brief: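 Each value is normalised viability at a single listed concentration of the series. Breast cancer cell lines in 384-well plates were incubated 72 h with compound and read by CellTiter-Blue fluorescence at 560/590 nm, with vehicle set to 100 and a positive kill control to 0 on every plate.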

[17] = system: MFM-223; conditions: 72 h; remark: listed apart in the source
Protocol: (§2)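 Drug sensitivity and resistance testing (DSRT) of breast cancer cell lines in 384-well plates, 5 concentrations in 10-fold dilutions over a compound-specific 10,000-fold range. After 72 h, cytotoxicity was read by CellTox Green fluorescence and viability by CellTiter-Glo luminescence (multiplexed), normalised to DMSO and benzethonium chloride controls. EC50 is the inflection point of the fitted dose-response curve (bottom asymptote free, so it can be relative for partial curves) and is censored at the highest tested concentration. Rows with DSS 0 (no meaningful response) were excluded.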

[18] = system: CAL-51; conditions: 72 h; remark: listed apart in the source
Protocol: as §2

[19] = system: MDA-MB-453; conditions: 72 h; remark: listed apart in the source
Protocol: as §2

[20] = system: MCF-10A; conditions: 72 h; remark: listed apart in the source
Protocol: as §2

[21] = system: MDA-MB-231; conditions: 72 h; remark: listed apart in the source
Protocol: as §2

[22] = system: MDA-MB-468; conditions: 72 h
Protocol: as §2

[23] = system: CAL-85-1; conditions: 72 h; remark: listed apart in the source
Protocol: as §2

[24] = system: Hs578T; conditions: 72 h; remark: listed apart in the source
Protocol: as §2

[25] = system: BT-549; conditions: 72 h; remark: listed apart in the source
Protocol: as §2

[26] = system: HDQ-P1; conditions: 72 h
Protocol: as §2

[27] = system: CAL-148; conditions: 72 h
Method in brief: as §1

[28] = system: HCC1143; conditions: 72 h; remark: listed apart in the source
Protocol: as §2

[29] = system: HCC1599; conditions: 72 h; remark: listed apart in the source
Protocol: as §2

[30] = system: DU-4475; conditions: 72 h; remark: listed apart in the source
Protocol: as §2

[31] = system: HCC1937; conditions: 72 h; remark: listed apart in the source
Protocol: as §2

[32] = system: BT-474; conditions: 72 h
Protocol: as §2

SMILES	EC50, CellTiter-Glo [1] [nM]	EC50, CellTiter-Glo [2] [nM]	EC50, CellTiter-Glo [3] [nM]	EC50, CellTiter-Glo [4] [nM]	EC50, CellTiter-Glo [5] [nM]	EC50, CellTiter-Glo [6] [nM]	EC50, CellTiter-Glo [7] [nM]	EC50, CellTiter-Glo [8] [nM]	EC50, CellTiter-Glo [9] [nM]	EC50, CellTiter-Glo [10] [nM]	EC50, CellTiter-Glo [11] [nM]	EC50, CellTiter-Glo [12] [nM]	EC50, CellTiter-Glo [13] [nM]	EC50, CellTiter-Glo [14] [nM]	EC50, CellTiter-Glo [15] [nM]	normalised viability ([16]; 10 nM) [%]	normalised viability ([16]; 1000 nM) [%]	normalised viability ([16]; 10000 nM) [%]	EC50, CellTox Green [17] [nM]	EC50, CellTox Green [18] [nM]	EC50, CellTox Green [19] [nM]	EC50, CellTox Green [20] [nM]	EC50, CellTox Green [21] [nM]	EC50, CellTox Green [22] [nM]	EC50, CellTox Green [23] [nM]	EC50, CellTox Green [24] [nM]	EC50, CellTox Green [25] [nM]	EC50, CellTox Green [26] [nM]	EC50, CellTiter-Glo [27] [nM]	EC50, CellTox Green [28] [nM]	EC50, CellTox Green [29] [nM]	EC50, CellTox Green [30] [nM]	EC50, CellTox Green [31] [nM]	EC50, CellTox Green [32] [nM]
Cn1cc(C2=Nc3cc(NC(=O)C(N)C4CCCCC4)cc4c3C2=CNNC4=O)cn1 (centres undefined)	109	1730	1430	130	193	2380	9440	109	2700	1410	3870	293	387	397	5050	112	19.4	10.4	3030	1130	7250	89.5	255	5280	88.9	9610	7370	1000	–	–	–	–	–	–
Cc1ccc([N+](=O)[O-])cc1S(=O)(=O)N(C)/N=C/c1cnc2ccc(Br)cn12 [PIK-75]	52.1	51.3	29.8	87.2	26.8	21.3	35.2	98.6	45.7	27.6	48.5	30.6	35.4	39	29.2	–	–	–	582	6.21	597	16.6	6.39	178	31.6	42	274	105	21.1	182	33.9	23.8	6400	161

From the supplement of paper PMC4862054
